In PMC4992173, “Divergent synthesis and identification of the cellular targets of deoxyelephantopins” (Nature Communications, 2016):

Molecular target: T1, endogenous PPARγ (Homo sapiens, UniProt P37231)
T1 construct: endogenous PPARγ was successfully enriched and quantified from the DMSO-treated Caco-2 cells; endogenous in cells; host or cells: Caco-2
Assay: Targeted competitive proteomics of endogenous PPARγ in Caco-2 cells
Format: cell-based
Conditions: Caco-2 cells treated in situ with 20 μM, lysate then 10 μM 24c; n=6
Experimental: On the basis of the reported interaction between deoxyelephantopin and PPARγ and because MCF7 cells are known to express very low levels of this protein, we investigated in a separate experiment whether deoxyelephantopin indeed covalently binds PPARγ. The recombinant transcription factor was spiked into MCF7 lysates to 30 nM final concentration and successfully enriched by the methacrylate ester probe 24c, as evidenced from LC–MS/MS-based label-free quantification (LFQ)[48]. […] Gratifyingly, endogenous PPARγ was successfully enriched and quantified from the DMSO-treated Caco-2 cells, whereas DEP pretreatment efficiently competed PPARγ enrichment (>95%; Fig. 7a). […]
Figure 7 Identification of PPARγ as target of deoxyelephantopin and screening of DEP derivatives as PPARγ antagonists. (a) Quantification of endogenous PPARγ enriched from Caco-2 cells using 10 μM 24c following in situ treatment with DEP (20 μM) or DMSO (normalized LFQ values±s.d. are shown; n=6). […] Quantification of fluorescence intensity in the competitive screening for PPARγ antagonists (bottom; values±s.d. are shown; n=3).
Samples were analyzed by LC-MS/MS (see below) and the MS data was processed with […]
Samples were analyzed by LC-MS/MS (see below) using inclusion lists containing m/z and charge of the expected peptides of indicated proteins (see Figure 6c γ . was processed with MaxQuant (see below). […]

T1 sequence (P37231 29-505 limits assumed): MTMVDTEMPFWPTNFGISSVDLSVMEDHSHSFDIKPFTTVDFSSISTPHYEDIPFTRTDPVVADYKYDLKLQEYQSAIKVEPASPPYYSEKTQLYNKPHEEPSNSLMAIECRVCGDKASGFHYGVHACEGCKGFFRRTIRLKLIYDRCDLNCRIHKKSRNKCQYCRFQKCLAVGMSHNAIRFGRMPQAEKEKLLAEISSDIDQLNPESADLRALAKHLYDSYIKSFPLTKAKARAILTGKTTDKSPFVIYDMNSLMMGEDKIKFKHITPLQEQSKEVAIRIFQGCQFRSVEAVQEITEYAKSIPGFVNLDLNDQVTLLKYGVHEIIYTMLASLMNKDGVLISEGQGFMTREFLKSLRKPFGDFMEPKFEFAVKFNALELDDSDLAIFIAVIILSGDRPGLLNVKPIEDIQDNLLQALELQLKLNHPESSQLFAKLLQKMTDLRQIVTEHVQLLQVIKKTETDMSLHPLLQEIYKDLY

For `C=C(C)C(=O)O[C@H]1CC2=C[C@@H](C/C(C)=C/[C@H]3OC(=O)C(=C)[C@H]13)OC2=O` [deoxyelephantopin], the “competition of endogenous PPARγ enrichment by 24c” value was greater than 95%.
